Assay results taken from US20110311593A1, “N-HYDROXYLATED AMIDINE-, GUANIDINE- AND/OR AMINOHYDRAZONE-TYPE PRODRUGS FOR APPLICATION ON THE SKIN” (priority 2009, published 2011).

Test: In vitro skin permeation profiles (permeation cell)
Assay type: in vitro ADME, human
Description: Comparison In Vitro Skin Permeation Profiles of Amanidine Prodrugs • System: in-vitro permeation cell (9 ml acceptor volume/1.539 cm^2 diffusion area, 32° C.) • Acceptor medium: phosphate buffer pH 5.5+0.1% NaN3 according to DAB 10 • Active ingredient: benzamidine, benzamidoxime (from Ex. 1) • Skin type: human full skin, ID 899 (belly person) • Vehicle: suspension in olive oil (2% by weight, 50 mg suspension per cell), applied to a circular nonwoven disk made of synthetic wool ([…] type I/20) and occlusively covered with a PSA film (silicone adhesive) as “over-plaster”.

Compound	permeated amount (0 h, human full skin, 2% by weight suspension in olive oil, acceptor phosphate buffer pH 5.5, 32° C.)	permeated amount (8 h, human full skin, 2% by weight suspension in olive oil, acceptor phosphate buffer pH 5.5, 32° C.)	permeated amount (24 h, human full skin, 2% by weight suspension in olive oil, acceptor phosphate buffer pH 5.5, 32° C.)	permeated amount (32 h, human full skin, 2% by weight suspension in olive oil, acceptor phosphate buffer pH 5.5, 32° C.)	permeated amount (48 h, human full skin, 2% by weight suspension in olive oil, acceptor phosphate buffer pH 5.5, 32° C.)	comparison of the permeated amounts of benzamidine and benzamidoxime	permeated amount (female, human, 0 h, 2 % by weight, pH 5.5)	permeated amount (female, human, 8 h, 2 % by weight, pH 5.5)	permeated amount (female, human, 24 h, 2 % by weight, pH 5.5)	permeated amount (female, human, 32 h, 2 % by weight, pH 5.5)	permeated amount (female, human, 48 h, 2 % by weight, pH 5.5)
N=C(N)c1ccccc1 [Benzamidine, benzamidine, reference compound]	0	2.24	13.7	21.2	41.3	–	–	–	–	–	–
NC(=NO)c1ccccc1 [Benzamidinoxime, Benzamidoxime]	–	–	–	–	–	advantage of the benzamidoxime being clearly visible	0	50.2	235	315	403
